Test results reported in patent US6716809B1, “Mage-A3 peptides presented by HLA class molecules” (priority 1997, dated 2004).

Experiments:
LB1158 CD4+ clone 22 = experiment: IFN-γ production by CD4+ clone 22 stimulated with peptide- or protein-pulsed EBV-B cells; assay type: cell-based, human; details: for recognition of short peptide by clone 22: conclusion from Table V; for IFN-γ production by clone 22: HLA-DR13 EBV-B cells
Experimental: (§1) In order to confirm the efficacy of this protocol, dendritic cells were fed with the MAGE-3 protein, using conditions described above, to stimulate autologous CD4^+ T lymphocytes from hemochromatosis patient LB1158 or from melanoma patient 7002. After four restimulations, the specific production of IFN-γ by an aliquot of each of the microcultures stimulated with the autologous EBV-B cells loaded with MAGE-A3 were tested on day 35 for patient LB1158 and day 37 for patient 7002. For each individual, one positive microculture was cloned using autologous EBV-B cells as stimulating cells, either retrotransduced with MFG Ii MAGE-A3 for LB1158, or fed with protein MAGE-A3 for patient 7002. […] Specifically, autologous EBV-B cells were incubated for 20 h in the presence of 20 μg/ml of recombinant His-MAGE-A3 protein. Clone 22 (2500 cells) was incubated overnight with 5000 MAGE-A3 loaded EBV-B cells in round botton microwells in the presence or absence of monoclonal antibodies which recognize HLA-A,B,C (W6/32) or HLA-DR (2B6). IFN-γ secretion was measured after 20 h by ELISA (FIG. 15A).
(§2) Peptides corresponding to parts of MAGE-A3 (e.g., MAGE107-122, MAGE111-126, MAGE115-130, MAGE119-134) were tested for recognition by clone 2 and 22. HLA-DR13 EBV-B cells were pulsed for 2 h with different concentrations of these peptides. Clones 2 and 37 (2500 cells) were incubated with 5000 peptide pulsed cells in round-bottomed microwells for 20 h and assayed for IFN-γ production.
(§3) Autologous or allogeneic EBV-B cells were pulsed for 2 h with 1 μg/ml MAGE-A3119-134 peptide, and then washed. Clones 2 or 22 were incubated with 5000 peptide-pulsed EBV-B cells in round-bottomed microwells for 20 h and the clones' reactivity to the EBV-B cells was measured by ELISA as IFN-γ secretion. Experiments were performed in triplicate.
(§4) Unlike HLA-class I-restricted peptides, class II-restricted peptides usually vary in length and tolerate extensions at both the amino and carboxy termini, because they are not fixed by their ends in the groove. It is therefore difficult to define precisely the length of the antigenic peptide. Therefore a large number of MAGE-A3 peptides were tested at different concentrations (Tables IV and V). […] 2500 cells of clone 37 were then cocultured for 20 h in round-bottomed microwells with 5000 peptide-pulsed cells. IFN-γ released in the supernatant of the cocultures was measured in an ELISA assay. The experiments were performed in triplicate. […] Clones 2 and 22 (2500 cells) were then cocultured for 20 h in round-bottomed microwells with 5000 peptide-pulsed cells. IFN-γ released in the supernatant of the cocultures was measured in an ELISA assay. The experiments was performed twice in duplicates.

7002 CD4+ clone 2 = experiment: IFN-γ production by CD4+ clone 2 stimulated with peptide- or protein-pulsed EBV-B cells; assay type: cell-based, human; details: for recognition of short peptide by clone 2: conclusion from Table V; for IFN-γ production by clone 2: HLA-DR13 EBV-B cells
Experimental: as §1, §2, §3, §4

[1] = peptide concentration 100 ng/ml
[2] = peptide concentration 300 ng/ml
[3] = peptide concentration 1000 ng/ml

Sequence | recognition of short peptide by clone 22 (LB1158 CD4+ clone 22) | IFN-γ production by clone 22 (LB1158 CD4+ clone 22; peptide concentration 1 ng/ml) [pg/mL] | IFN-γ production by clone 22 (LB1158 CD4+ clone 22; peptide concentration 3 ng/ml) [pg/mL] | IFN-γ production by clone 22 (LB1158 CD4+ clone 22; peptide concentration 10 ng/ml) [pg/mL] | IFN-γ production by clone 22 (LB1158 CD4+ clone 22; peptide concentration 30 ng/ml) [pg/mL] | IFN-γ production by clone 22 (LB1158 CD4+ clone 22; [1]) [pg/mL] | IFN-γ production by clone 22 (LB1158 CD4+ clone 22; [2]) [pg/mL] | IFN-γ production by clone 22 (LB1158 CD4+ clone 22; [3]) [pg/mL] | recognition of short peptide by clone 2 (7002 CD4+ clone 2) | IFN-γ production by clone 2 (7002 CD4+ clone 2; peptide concentration 1 ng/ml) [pg/mL] | IFN-γ production by clone 2 (7002 CD4+ clone 2; peptide concentration 3 ng/ml) [pg/mL] | IFN-γ production by clone 2 (7002 CD4+ clone 2; peptide concentration 10 ng/ml) [pg/mL] | IFN-γ production by clone 2 (7002 CD4+ clone 2; peptide concentration 30 ng/ml) [pg/mL] | IFN-γ production by clone 2 (7002 CD4+ clone 2; [1]) [pg/mL] | IFN-γ production by clone 2 (7002 CD4+ clone 2; [2]) [pg/mL] | IFN-γ production by clone 2 (7002 CD4+ clone 2; [3]) [pg/mL]
FLLLKYRAREPVT (listed as Homo sapiens) | well recognized | 291 | 584 | 1099 | 1635 | 1510 | 1834 | 2183 | well recognized | 114 | 370 | 1437 | 2003 | 2951 | 2860 | 3079
FLLLKYRAREPVTK (listed as Homo sapiens) | – | 0 | 0 | 1 | 10 | 28 | 115 | 453 | – | 0 | 0 | 0 | 0 | 85 | 0 | 0
FLLLKYRAREPVTKA (listed as Homo sapiens) | – | 283 | 1294 | 1619 | 1775 | 1854 | 1965 | 2180 | – | 245 | 865 | 1753 | 2713 | 2871 | 3354 | 3314
KYRAREPVTKAE (listed as Homo sapiens) | – | 0 | 5 | 0 | 5 | 16 | 135 | 542 | – | 0 | 0 | 0 | 0 | 0 | 0 | 50
LKYRAREPVTKAE (listed as Homo sapiens) | – | 0 | 25 | 223 | 567 | 1029 | 1475 | 2004 | – | 0 | 0 | 79 | 386 | 1324 | 2544 | 2755
LLKYRAREPVTKAE (listed as Homo sapiens) | well recognized | 262 | 638 | 1073 | 1651 | 1736 | 1826 | 2225 | well recognized | 40 | 303 | 1419 | 2012 | 2918 | 3186 | 3078
